Counter-ions that a name gives are not always drawn.
How the values were obtained:
[1] = tested on: mouse ES cells (Pdx1/GFP); assay: Differentiation of mouse ES cells into insulin positive cells on nano fiber plate, immunostaining and quantitative image analysis; type: cell-based; details: for effect on differentiation into insulin-expressing cells: compound added d11-d17, insulin staining d17 (FIG. 4, 5, 7, 8, 10); for induction of the differentiation of stem cells into insulin-producing cells: similar separate experiments; for number of Pdx1/GFP positive cells / number of insulin positive cells: 0 to 10 μM added from d11, counted d17 (FIG. 14); for hit confirmed by dose-responsiveness: 0.08 to 10 μM, SK7 ES cells; for Relative value of Ins positive cells: number of cells with no compound = 1, concentration of each compound (μM), added d11, d13, d15, analysed d17
Excerpt: Two ES cell lines, one expressing green fluorescent protein (GFP) under the control of insulin 1 promoter, designed ING (Higuchi Y., Shiraki N., Yamane K, Qin Z., Mochitate K., Araki K., Senokuchi K., Yamagata K., Hara M., Kume K., and Kume S., Synthesized basement membranes direct the differentiation of mouse embryonic stem cells into pancreatic lineages. J. Cell Science, 123, 2733-2742, 2010), and the other one expressing GFP under the control of Pdx1 promoter, designated SK7 (Shiraki N, Yoshida T, Araki K, et al. Guided differentiation of embryonic stem cells into Pdx1-expressing regional-specific definitive endoderm. Stem Cells. 2008; 26:874-885), were used. Both cell lines were maintained on mouse embryonic fibroblast (MEF) feeders in Glasgow minimum essential medium (Invitrogen) containing 1000 units/ml leukemia inhibitory factor (LIF; Chemicon), 15% Knocked-out Serum Replacement (KSR; Gibco), 1% fetal bovine serum (FBS; Hyclone), 100 μM nonessential amino acids (NEAA; Invitrogen), 2 mM L-glutamine (L-Gln; Invitrogen), 1 mM sodium pyruvate (Invitrogen), 50 units/ml penicillin and 50 μg/ml streptomycin (PS; Invitrogen) and 100 μM β-mercaptoethanol (β-ME; Sigma), as ES maintenance medium.
For the differentiation studies, ES cells were plated at 5,000 cells per well in Corning 96 well plate with Ultra-Web Synthetic Polyamine Surface (#3873XX1, Corning Coster, Cambridge, Miss.), and cultured. The cells were cultured in Dulbecco's Modified Eagle Medium (DMEM: Invitrogen, Glasgow, UK) containing 4500 mg/L glucose, supplemented with NEAA, L-Gln, PS, β-ME, 10 μg/ml insulin (Sigma-Aldrich), 5.5 μg/ml transferrin (Sigma-Aldrich), 6.7 pg/ml selenium (Sigma-Aldrich), and 0.25% Albmax (Invitrogen), 10 ng/mL recombinant human activin-A (R&D Systems, Minneapolis, Minn.), 5 ng/mL; recombinant human bFGF for 7 days (d1-d7) (I of FIG. 1). And then, the medium was changed to RPMI 1640 medium (Invitrogen) containing 2000 mg/L glucose (Sigma, St Louis, Mo.), 1 μM Retinoic acid (Sigma-Aldrich), 50 ng/ml Human Recombinant Fibroblast Growth Factor-10 (Peprotech, Rocky Hill, N.J.), B27 SUPPLEMENT (Invitrogen) and 0.25 μM 3-Keto-N-(aminoethyl-aminocaproyl-dihydrocinnamoyl) cyclopamine Shh Signaling Antagonist II (Calbiochem, San Diego, Calif.) on d7 to d11 (II of FIG. 1). Finally, the medium was switched to DMEM containing 1000 mg/L glucose supplemented with NEAA, L-Gln, PS, β-ME, 10 μg/ml insulin (Sigma-Aldrich), 5.5 μg/ml transferrin (Sigma-Aldrich), 6.7 pg/ml selenium (Sigma-Aldrich), 0.25% Albmax (Invitrogen) and 10 mM nicotinamide (Sigma-Aldrich) on d11 to d17 (III of FIG. 1). Media were replaced every 2 days with fresh medium and growth factors until d17.
All tested small chemical compounds were solved in dimethyl sulfoxide (DMSO) at given concentration. Compounds were added on d11, d13 and d15 in a medium. Final concentration of DMSO was adjusted at 1.0% in all experiments for compounds.
After 17 days cell culture, cultured ES cells were fixed in 4% paraformaldehyde in PBS for 30 min at room temperature, and rinsed several times with PBS. Then, cells were incubated in the added diluted primary antibody in 20% Blocking One (Nacalai tesque, Tokyo, Japan) in PEST (0.1% Tween-20 in PBS) in a humidified chamber for overnight at 4° C. After washing the cells in PBST, cells were incubated with the secondary antibody in 20% Blocking One for 2 hr at room temperature in dark. After washing off the secondary antibody in PBST, cells were counterstained with […] (DAPI) (Roche Diagnostics). The following antibodies were used as First antibodies: Rabbit anti-GFP (MBL International Corp., Woburn, Mass.), Mouse anti-Insulin (Sigma). The following antibodies were used as Secondary antibodies: Alexa 568-conjugated, Alexa 488-conjugated antibodies (Invitrogen) Cells were counterstained with DAPI (Roche Diagnotics, Basel, Switzerland).

differentiated ES cells [2] = assay: Secreted insulin and cellular insulin content by mouse c-peptide ELISA; type: cell-based; details: TBZ 2.5 μM, dBu-cAMP 0.6 μM, day 11 to 17; sorted GFP positive cells day 17 (FIG. 18D)
differentiated ES cells [3] = assay: Real time PCR of gene expression in differentiated ES cells; type: cell-based, mouse; details: TBZ 2.5 μM
Ngn3/GFP mouse ES cells = assay: Ngn3 positive cell inducing rate; type: cell-based
Method: The influence exerted on the Ngn3 positive cell inducing rate by addition of TBZ (2.5 μM) or dBu-cAMP (0.6 μM) was confirmed. FIG. 16A is a view schematically showing the addition periods of TBZ or dBu-cAMP, and the addition periods are a) on days 9 to 11 of culture, b) on days 11 to 13 of culture, and c) on days 9 to 13 of culture.
First, the compound was not added or TBZ was added on days 9 to 13 of culture (period c), and visible light photographs and fluorescence of Ngn3/GFP mouse ES cells were observed on day 13 of culture. The left one is a visible light photograph and the right one is fluorescence.
Next, the compound was not added, or TBZ or dBu-cAMP was added under the above-described conditions a), b) and c), and the proportion of GFP positive cells on day 13 of culture was checked. The ratios of the proportions of GFP positive cells and Ngn3 positive cells when the ratio in the case of no addition is 1 are shown in FIG. 16C. […] The order of intensity of the effect was a), c), b) in descending order.

C[C@](N)(Cc1ccc(O)cc1)C(=O)O [alpha- Methyltyrosine, α-methyltyrosine]
effect on differentiation into insulin-expressing cells [1]: the same effect

CN(C)CCC(c1ccc(Cl)cc1)c1ccccn1 (stereo not shown) [chlorpheniramine maleate]
induction of the differentiation of stem cells into insulin-producing cells [1]: induce the differentiation of stem cells into insulin-producing cells

CN(C)CCCSC(=N)N [dimaprit dihydrochloride]
induction of the differentiation of stem cells into insulin-producing cells [1]: induce the differentiation of stem cells into insulin-producing cells

C[C@@](Cc1ccc(O)c(O)c1)(NN)C(=O)O [Carbidopa, carbidopa]
effect on differentiation into insulin-expressing cells [1]: the same effect

COCCCC/C(=N\OCCN)c1ccc(C(F)(F)F)cc1 [fluvoxamine maleate]
induction of the differentiation of stem cells into insulin-producing cells [1]: induce the differentiation of stem cells into insulin-producing cells

CCN(CC)CCCC(C)Nc1c2ccc(Cl)cc2nc2ccc(OC)cc12 (stereo not shown) [quinacrine dihydrochloride dihydrate]
induction of the differentiation of stem cells into insulin-producing cells [1]: induce the differentiation of stem cells into insulin-producing cells

NCCc1c[nH]cn1 [histamine]
number of Pdx1/GFP positive cells [1]: did not vary
number of insulin positive cells [1]: decreased in a concentration-dependent manner

C[C@@H]1C(=O)O[C@H]2C[C@@]34[C@H]5C[C@@H](C(C)(C)C)[C@]36[C@@H](OC(=O)[C@@H]6O)O[C@@]4(C(=O)O5)[C@]21O [ginkgolide A]
induction of the differentiation of stem cells into insulin-producing cells [1]: induce the differentiation of stem cells into insulin-producing cells

CN/C(=N/CCSCc1nc[nH]c1C)NC#N [cimetidine]
induction of the differentiation of stem cells into insulin-producing cells [1]: induce the differentiation of stem cells into insulin-producing cells

C[N+](C)(C)CCOC(N)=O [Carbachol, carbachol]
effect on differentiation into insulin-expressing cells [1]: increased insulin positive cells

COc1cc2c(cc1OC)-c1cc3ccc(OC)c(OC)c3c[n+]1CC2 [Palmatine chloride, palmatine chloride]
hit confirmed by dose-responsiveness [1]: positive
effect on differentiation into insulin-expressing cells [1]: increased insulin positive cells

CO[C@@H]1[C@@H]2OP(=O)(O)OC[C@H]2O[C@H]1n1c(Sc2ccc(Cl)cc2)nc2c(N)ncnc21 [8-CPT-2-Me-cAMP]
Relative value of Ins positive cells [1]: 3.7

O=C(CCCN1CCN(c2ccccn2)CC1)c1ccc(F)cc1 [azaperone]
induction of the differentiation of stem cells into insulin-producing cells [1]: induce the differentiation of stem cells into insulin-producing cells

N[C@@H](Cc1c[nH]c2ccc(O)cc12)C(=O)O [5HTP, 5-hydroxytryptophan]
effect on differentiation into insulin-expressing cells [1]: the same effect

Nc1nc2ncc(CNc3ccc(C(=O)N[C@@H](CCC(=O)O)C(=O)O)cc3)nc2c(=O)[nH]1 [Folic acid, folic acid]
hit confirmed by dose-responsiveness [1]: positive

NCCc1c[nH]c2ccc(O)cc12 [serotonin]
number of Pdx1/GFP positive cells [1]: did not vary
number of insulin positive cells [1]: decreased in a concentration-dependent manner

NCCc1ccc(O)c(O)c1 [dopamine]
effect on insulin positive cells ([1]; 0.1 μM dopamine (FIG. 11B)): decreased insulin positive cells
effect on enhancement effect of dBu-cAMP ([1]; 0.1 μM dopamine with 0.6 μM dBu-cAMP (FIG. 11B)): scarcely influenced
effect on increase of insulin-expressing cells mediated by reserpine ([1]; 0.1 μM dopamine with 0.6 μM reserpine (FIG. 11B)): inhibited completely
concentration inhibiting completely the differentiation of β cells ([1]; FIG. 8): ≥ 100 nM
effect on differentiation into insulin-expressing cells [1]: suppressed the differentiation of pancreas in a dose-dependent manner

COc1cc2c(cc1OC)C1CC(=O)C(CC(C)C)CN1CC2 (stereo not shown) [Tetrabenazine, tetrabenazine]
effect on differentiation into insulin-expressing cells [1]: promoted the differentiation into insulin-expressing cells
C-peptide content of GFP positive cells (differentiated ES cells [2]): increased
expression of Abcc8 (differentiated ES cells [3]; dBu-cAMP 0.6 μM (FIG. 13)): did not increase
expression of Glut2 (differentiated ES cells [3]; dBu-cAMP 0.6 μM (FIG. 13)): did not increase
expression of MafA (differentiated ES cells [3]; dBu-cAMP 0.6 μM (FIG. 13)): increased slightly
expression of Stx1 (differentiated ES cells [3]; dBu-cAMP 0.6 μM (FIG. 13)): increased slightly
expression level of MafA, time course (differentiated ES cells [3]; dBu-cAMP 0.6 μM from day 11, after day 13 (FIG. 15)): promoted
expression level of Nkx6.1 (differentiated ES cells [3]; dBu-cAMP 0.6 μM from day 11, after day 15 (FIG. 15)): strongly promoted
expression level of Ngn3 (differentiated ES cells [3]; dBu-cAMP 0.6 μM from day 11, day 13 and day 15 (FIG. 15)): increased remarkably
expression level of Insulin1 (differentiated ES cells [3]; dBu-cAMP 0.6 μM from day 11, single after day 13, both after day 15 (FIG. 15)): promoted
Ngn3 positive cells (fluorescence) (Ngn3/GFP mouse ES cells; TBZ 2.5 μM on days 9 to 13, observed day 13 (FIG. 16B)): increase of Ngn3 positive cells
number of GFP positive cells (Ngn3/GFP mouse ES cells; TBZ 2.5 μM or dBu-cAMP 0.6 μM, addition days 9-11, 11-13 or 9-13, day 13 (FIG. 16C)): increased in all conditions

Cc1nccn1CC1CCc2c(c3ccccc3n2C)C1=O (stereo not shown) [ondansetron hydrochloride]
induction of the differentiation of stem cells into insulin-producing cells [1]: induce the differentiation of stem cells into insulin-producing cells

OCCOCCN1CCN(C(c2ccccc2)c2ccc(Cl)cc2)CC1 (stereo not shown) [hydroxyzine dihydrochloride]
induction of the differentiation of stem cells into insulin-producing cells [1]: induce the differentiation of stem cells into insulin-producing cells

CN1CC[C@@]2(C)c3cc(O)ccc3N(C)[C@@H]12.O=C(O)/C=C/C(=O)O [Eseroline fumarate salt, eseroline fumarate]
hit confirmed by dose-responsiveness [1]: positive
effect on differentiation into insulin-expressing cells [1]: increased insulin positive cells
Relative value of Ins positive cells [1]: 1.8

C#CCN(C)Cc1ccccc1 [Pargyline, pargyline hydrochloride]
effect on differentiation of Pdx1 positive cells into insulin-producing cells ([1]; 1 μM Pargyline (FIG. 6, 7)): disturbs the differentiation of Pdx1 positive cells into insulin-producing cells
effect on Pdx1 positive pancreatic precursor cells ([1]; reserpine 0.63 μM, Pargyline 1 μM (FIG. 6, 7)): without influencing the ratio of Pdx1-expressing cells
induction of the differentiation of stem cells into insulin-producing cells [1]: induce the differentiation of stem cells into insulin-producing cells
effect of 1 μM Pargyline on differentiation in presence of reserpine ([1]; with 0.63 μM reserpine): deactivated

Cc1c2ccncc2c(C)c2c1[nH]c1ccccc12 [ellipticine]
hit confirmed by dose-responsiveness [1]: positive

Source: patent publication US9617517B2, “Small chemical compound which promotes induction of differentiation of stem cells into insulin-producing cells and method for inducing differentiation of stem cells into insulin-producing cells using said small chemical compound” (NATIONAL UNIVERSITY CORPORATION KUMAMOTO UNIVERSITY, priority 2011, dated 2017)
